Assay: recombinant UMI read abundance after kanamycin selection (control-corrected) (log10(CPM+1)); higher = more efficient recombination; extreme values may be limits of the assay; sequences stand for … in AGTGCAGAGAAAATCGGCCAGTTTTCTCTGCCTGCAGTCCGCATGCCGTGGGACCCCTTGGGTTCTAACCTGTTGCCTAGATTTATGCAGCGGACTGCCTTTCTCCCAAAGTGATAAACCGG…AGGTTGGTTTCACT; site = the 11-nt donor
Procedure, shortened: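 Counts of recombinant UMIs were reported as log10(CPM+1). Before that, they were converted to CPM, averaged over replicates and scaled using control-derived factors. They came from PCR across the donor–target junction after Escherichia coli carrying the pair library and target plasmid was plated on IPTG (0.07 mM) plus kanamycin, or unselected, in two replicates each.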
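Note: IS621 bridge recombinase in Escherichia coli cells against a fixed T5 target plasmid.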

| Sequence | recombinant UMI read abundance (log10) |
| --- | --- |
| TAGGCATCATGGACCGGTTTTCCCGGTAATCCGTATTTGCG (site TAGGCATCTCG) | 1.31 |
| TAGGCATCATGGACCGGTTTTCCCGGTAATCCGTATTTGCG (site TAGGGATCTCG) | 0.00568 |
| TAGGCATCATGGACCGGTTTTCCCGGTAATCCGTATTTGCG (site TAGGTATCTCG) | 0.449 |
| TAGGGGACATGGACCGGTTTTCCCGGTAATCCGTATTTGAA (site TAGGGGACTTT) | 1.24 |
| TAGGTAGCATGGACCGGTTTTCCCGGTAATCCGTATTTGAA (site TAGATAGCTTT) | 0.894 |
| TAGGTAGCATGGACCGGTTTTCCCGGTAATCCGTATTTGAA (site TAGCTAGCTTT) | 0.00863 |
| TAGGTAGCATGGACCGGTTTTCCCGGTAATCCGTATTTGAA (site TAGGTAGCTTT) | 1.67 |
| TAGGTAGCATGGACCGGTTTTCCCGGTAATCCGTATTTGAA (site TAGTTAGCTTT) | 0.0108 |
| TAGGTATCATGGACCGGTTTTCCCGGTAATCCGTATTTGCG (site TAGGAATCTCG) | 1.02 |
| TAGGTATCATGGACCGGTTTTCCCGGTAATCCGTATTTGCG (site TAGGCATCTCG) | 1.3 |
| TAGGTATCATGGACCGGTTTTCCCGGTAATCCGTATTTGCG (site TAGGGATCTCG) | 1.7 |
| TAGGTATCATGGACCGGTTTTCCCGGTAATCCGTATTTGCG (site TAGGTATCTCG) | 2.92 |
| TAGGTTGCATGGACCGGTTTTCCCGGTAATCCGTATTTGGC (site TAGGTTGCTGC) | 2.62 |
| TAGTACTCATGGACCGGTTTTCCCGGTAATCCGTATTTGCT (site TAGTACTCTAG) | 2.94 |
| TAGTAGTCATGGACCGGTTTTCCCGGTAATCCGTATTTGGG (site TAGTAGTCTCC) | 0.369 |
| TAGTCGACATGGACCGGTTTTCCCGGTAATCCGTATTTGGG (site AAGTCGACTCC) | 0.0151 |
| TAGTCGACATGGACCGGTTTTCCCGGTAATCCGTATTTGGG (site CAGTCGACTCC) | 0.0191 |
| TAGTCGACATGGACCGGTTTTCCCGGTAATCCGTATTTGGG (site GAGTCGACTCC) | 0.0292 |
| TAGTCGACATGGACCGGTTTTCCCGGTAATCCGTATTTGGG (site TAGTCGACTCC) | 0.0301 |

| Sequence | recombinant UMI read abundance (log10) |
| --- | --- |
| TAGTCGGCATGGACCGGTTTTCCCGGTAATCCGTATTTGAT (site TAGTCGGCTAT) | 0.387 |
| TAGTTAGCATGGACCGGTTTTCCCGGTAATCCGTATTTGAA (site TAGATAGCTTT) | 0.0157 |
| TAGTTAGCATGGACCGGTTTTCCCGGTAATCCGTATTTGAA (site TAGCTAGCTTT) | 0.407 |
| TAGTTAGCATGGACCGGTTTTCCCGGTAATCCGTATTTGAA (site TAGGTAGCTTT) | 0.00722 |
| TAGTTAGCATGGACCGGTTTTCCCGGTAATCCGTATTTGAA (site TAGTTAGCTTT) | 1.33 |
| TATAACTCATGGACCGGTTTTCCCGGTAATCCGTATTTGGC (site TATAACTCTGC) | 1.35 |
| TATACACCATGGACCGGTTTTCCCGGTAATCCGTATTTGAC (site TATACACCTGT) | 0 |
| TATACACCATGGACCGGTTTTCCCGGTAATCCGTATTTGAC (site TCTACACCTGT) | 0.0077 |
| TATACACCATGGACCGGTTTTCCCGGTAATCCGTATTTGAC (site TGTACACCTGT) | 0 |
| TATACACCATGGACCGGTTTTCCCGGTAATCCGTATTTGAC (site TTTACACCTGT) | 0 |
| TATATCTCATGGACCGGTTTTCCCGGTAATCCGTATTTGAA (site TATATCTCTTT) | 0.835 |
| TATATCTCATGGACCGGTTTTCCCGGTAATCCGTATTTGTA (site TATATCTCTTA) | 1.93 |
| TATCCTCCATGGACCGGTTTTCCCGGTAATCCGTATTTGTT (site TATCCTCCTAA) | 0.0195 |
| TATCCTTCATGGACCGGTTTTCCCGGTAATCCGTATTTGGT (site TAACCTTCTAC) | 0.00593 |
| TATCCTTCATGGACCGGTTTTCCCGGTAATCCGTATTTGGT (site TACCCTTCTAC) | 0.0066 |
| TATCCTTCATGGACCGGTTTTCCCGGTAATCCGTATTTGGT (site TAGCCTTCTAC) | 0.0208 |
| TATCCTTCATGGACCGGTTTTCCCGGTAATCCGTATTTGGT (site TATCCTTCTAC) | 0.31 |
| TATCGATCATGGACCGGTTTTCCCGGTAATCCGTATTTGAC (site TATCGATCTGT) | 1.86 |
